# Results reported in ChEMBL document CHEMBL2380238, “Synthesis, spectral and antimicrobial evaluation of some novel 1-methyl-3-alkyl-2,6-diphenylpiperidin-4-one oxime carbonates” (2013).
# Active and inactive are the calls of the source. No cut-off for these calls is given here.
# What was measured:
# Type in all cases: functional
# [1] = test system: Pseudomonas aeruginosa; test: Antibacterial activity against Pseudomonas aeruginosa
# [2] = test system: Rhizopus; test: Antifungal activity against Rhizopus after 72 to 96 hrs by broth dilution method
# [3] = test system: Enterococcus faecalis; test: Antibacterial activity against Streptococcus faecalis; for IZ: test concentration or dose not given here
# [4] = test system: Aspergillus flavus; test: Antifungal activity against Aspergillus flavus after 72 to 96 hrs by broth dilution method
# [5] = test system: Rhizopus; test: Antifungal activity against Rhizopus; for IZ: test concentration or dose not given here
# [6] = test system: Penicillium; test: Antifungal activity against Penicillium
# [7] = test system: Aspergillus niger; test: Antifungal activity against Aspergillus niger after 72 to 96 hrs by broth dilution method
# [8] = test system: Enterococcus faecalis; test: Antibacterial activity against Streptococcus faecalis after 24 hrs by broth dilution method
# [9] = test system: Fusarium; test: Antifungal activity against Fusarium after 72 to 96 hrs by broth dilution method
# [10] = test system: Escherichia coli; test: Antibacterial activity against Escherichia coli; note: test concentration or dose not given here
# [11] = test system: Bacillus subtilis; test: Antibacterial activity against Bacillus subtilis after 24 hrs by broth dilution method
# [12] = test system: Klebsiella pneumoniae; test: Antibacterial activity against Klebsiella pneumoniae after 24 hrs by broth dilution method
# [13] = test system: Aspergillus flavus; test: Antifungal activity against Aspergillus flavus; note: test concentration or dose not given here
# [14] = test system: Aspergillus niger; test: Antifungal activity against Aspergillus niger; note: test concentration or dose not given here
# [15] = test system: Pseudomonas aeruginosa; test: Antibacterial activity against Pseudomonas aeruginosa after 24 hrs by broth dilution method
# [16] = test system: Bacillus subtilis; test: Antibacterial activity against Bacillus subtilis; note: test concentration or dose not given here
# [17] = test system: Escherichia coli; test: Antibacterial activity against Escherichia coli after 24 hrs by broth dilution method
# [18] = test system: Penicillium; test: Antifungal activity against Penicillium after 72 to 96 hrs by broth dilution method
# [19] = test system: Klebsiella pneumoniae; test: Antibacterial activity against Klebsiella pneumoniae
# [20] = test system: Fusarium; test: Antifungal activity against Fusarium
Structure (SMILES),inhibition zone (IZ) [1],MIC [2] [µg/mL],inhibition zone (IZ) [3],MIC [4] [µg/mL],inhibition zone (IZ) [5],inhibition zone (IZ) [6],MIC [7] [µg/mL],MIC [8] [µg/mL],MIC [9] [µg/mL],inhibition zone (IZ) [10] [mm],MIC [11] [µg/mL],MIC [12] [µg/mL],inhibition zone (IZ) [13],inhibition zone (IZ) [14],MIC [15] [µg/mL],inhibition zone (IZ) [16] [mm],MIC [17] [µg/mL],MIC [18] [µg/mL],inhibition zone (IZ) [19],inhibition zone (IZ) [20]
CCOC(=O)O/N=C1\CC(c2ccccc2)N(C)C(c2ccccc2)C1C(C)C (stereo not given),inactive,200,12 mm,100,inactive,inactive,200,50,200,17,12.5,200,12 mm,inactive,200,12,12.5,200,inactive,inactive
CCOC(=O)O/N=C1\CC(c2ccccc2)N(C)C(c2ccccc2)C1CC (stereo not given),inactive,100,12 mm,200,12 mm,inactive,200,100,200,12,25,200,inactive,inactive,200,12,25,200,inactive,inactive
CCOC(=O)O/N=C1\CC(c2ccccc2)N(C)C(c2ccccc2)C1C (stereo not given),inactive,200,inactive,100,inactive,inactive,200,200,200,12,50,200,12 mm,inactive,200,12,50,200,inactive,inactive
CC(Cl)OC(=O)O/N=C1\CC(c2ccccc2)N(C)C(c2ccccc2)C1C(C)C (stereo not given),32 mm,25,32 mm,25,22 mm,32 mm,25,6.25,12.5,22,6.25,6.25,22 mm,17 mm,6.25,32,12.5,12.5,32 mm,32 mm
CC1/C(=N/OC(=O)Oc2ccccc2)CC(c2ccccc2)N(C)C1c1ccccc1 (stereo not given),12 mm,50,17 mm,50,12 mm,12 mm,100,25,25,17,25,12.5,12 mm,12 mm,25,12,12.5,50,17 mm,12 mm
COC(=O)O/N=C1\CC(c2ccccc2)N(C)C(c2ccccc2)C1C(C)C (stereo not given),inactive,200,12 mm,100,inactive,inactive,200,50,200,17,12.5,200,12 mm,inactive,200,12,12.5,200,inactive,inactive
CC1/C(=N/O)CC(c2ccccc2)N(C)C1c1ccccc1 (stereo not given),inactive,100,inactive,200,12 mm,inactive,200,200,200,12,100,200,inactive,inactive,200,12,100,200,inactive,inactive
COC(=O)O/N=C1\CC(c2ccccc2)N(C)C(c2ccccc2)C1C (stereo not given),inactive,200,inactive,100,inactive,inactive,200,200,200,12,50,200,12 mm,inactive,200,12,50,200,inactive,inactive
CCC1/C(=N/OC(=O)OC(C)Cl)CC(c2ccccc2)N(C)C1c1ccccc1 (stereo not given),22 mm,25,22 mm,25,17 mm,17 mm,25,12.5,12.5,22,25,6.25,17 mm,17 mm,12.5,17,12.5,25,32 mm,22 mm
